Results published in publication PMC1533168 (Environmental Health Perspectives, 1998).
Several values for one entry are separate records, joined by “and”; a condition that tells them apart may be missing. Equal entries are not always repeated. Where two headings read alike, the source gives them in different places.

Tests used:
[1] = type: in vivo, human; details: for A2 coefficient, breath elimination model / A1 coefficient, breath elimination model / Breath, 1st compartment half-life, elimination / Breath, 2nd compartment half-life, elimination / Breath, 3rd compartment half-life, elimination: elimination period after 100 ppmv 4 hr inhalation; for Breath model value at t = 0: elimination model; for Breath model value at t = 0 / Breath model value at t = 240: end of 100 ppmv 4 hr inhalation; for Breath model value at t = 240: uptake model; for Breath, 1st compartment half-life, uptake / k1 time constant, breath uptake model: uptake period, 100 ppmv 4 hr inhalation
[2] = Controlled chamber inhalation exposure: trichloroethene in venous blood; type: in vivo, human; details: for Blood model value at t = 0 (Blood, meas): elimination model; for Blood model value at t = 0 (Blood, meas) / Blood model value at t = 240: end of 100 ppmv 4 hr inhalation; for A coefficient (first), blood elimination model / Blood, 1st compartment half-life, elimination / A2 coefficient, blood elimination model: elimination period after 100 ppmv 4 hr inhalation; for Blood model value at t = 240: uptake model; for Blood, 1st compartment half-life, uptake / k1 time constant, blood uptake model: uptake period, 100 ppmv 4 hr inhalation; for k1 time constant, blood uptake model: time in minutes
[3] = cited from earlier work
[4] = type: in vivo, human; details: for Calc:meas ratio of peak blood level: elimination curves
[5] = all subjects, 100 ppmv 4 hr inhalation and 20 hr purified air
[6] = measured in vitro, ref Fiserova-Bergerova and Diaz (24)
[7] = Subject 108, end of 100 ppmv 4 hr inhalation
[8] = Subject 109, end of 100 ppmv 4 hr inhalation
[9] = Subject 110, end of 100 ppmv 4 hr inhalation
[10] = Subject 208, end of 100 ppmv 4 hr inhalation
[11] = Subject 209, end of 100 ppmv 4 hr inhalation
[12] = Subject 210, end of 100 ppmv 4 hr inhalation
[13] = all individual data point pairs, all subjects

SMILES: ClC=C(Cl)Cl [trichloroethene]
- A2 coefficient, breath elimination model ([1]; Mean ± SE of 6 subjects): 28.67 6.26 micrograms per liter
- Breath model value at t = 0 ([1]; Subject 108): 96.6 pg/I
- A1 coefficient, breath elimination model ([1]; Subject 108): 76.7 micrograms per liter
- A2 coefficient, breath elimination model ([1]; Subject 108): 15.21 micrograms per liter
- Breath, 1st compartment half-life, elimination ([1]; Subject 108): 4.40 min
- Breath, 2nd compartment half-life, elimination ([1]; Subject 108): 54.15 min
- Breath, 3rd compartment half-life, elimination ([1]; Subject 108): 424.98 min
- Breath model value at t = 240 ([1]; Subject 108): 105.8 pg/I
- Breath, 1st compartment half-life, uptake ([1]; Subject 108): 9.90 min
- k1 time constant, breath uptake model ([1]; Subject 108, time in minutes): 0.07004
- Breath model value at t = 0 ([1]; Subject 109): 175.5 pg/I
- A1 coefficient, breath elimination model ([1]; Subject 109): 115.8 micrograms per liter
- A2 coefficient, breath elimination model ([1]; Subject 109): 53.76 micrograms per liter
- Breath, 1st compartment half-life, elimination ([1]; Subject 109): 1.15 min
- Breath, 2nd compartment half-life, elimination ([1]; Subject 109): 27.16 min
- Breath, 3rd compartment half-life, elimination ([1]; Subject 109): 541.52 min
- Breath model value at t = 240 ([1]; Subject 109): 130.3 pg/I
- Breath, 1st compartment half-life, uptake ([1]; Subject 109): 9.59 min
- k1 time constant, breath uptake model ([1]; Subject 109, time in minutes): 0.07229
- Breath model value at t = 0 ([1]; Subject 110): 162.5 pg/I
- A1 coefficient, breath elimination model ([1]; Subject 110): 146.2 micrograms per liter
- A2 coefficient, breath elimination model ([1]; Subject 110): 13.41 micrograms per liter
- Breath, 1st compartment half-life, elimination ([1]; Subject 110): 4.07 min
- Breath, 2nd compartment half-life, elimination ([1]; Subject 110): 88.18 min
- Breath, 3rd compartment half-life, elimination ([1]; Subject 110): 1,269.50 min
- Breath model value at t = 240 ([1]; Subject 110): 115.2 pg/I
- Breath, 1st compartment half-life, uptake ([1]; Subject 110): 39.05 min
- k1 time constant, breath uptake model ([1]; Subject 110, time in minutes): 0.01775
- Breath model value at t = 0 ([1]; Subject 208): 129.9 pg/I
- A1 coefficient, breath elimination model ([1]; Subject 208): 104.4 micrograms per liter
- A2 coefficient, breath elimination model ([1]; Subject 208): 21.21 micrograms per liter
- Breath, 1st compartment half-life, elimination ([1]; Subject 208): 0.97 min
- Breath, 2nd compartment half-life, elimination ([1]; Subject 208): 29.98 min
- Breath, 3rd compartment half-life, elimination ([1]; Subject 208): 396.31 min
- Breath model value at t = 240 ([1]; Subject 208): 98.6 pg/I
- Breath, 1st compartment half-life, uptake ([1]; Subject 208): 9.92 min
- Breath model value at t = 0 ([1]; Subject 209): 161.2 pg/I
- A1 coefficient, breath elimination model ([1]; Subject 209): 114.1 micrograms per liter
- A2 coefficient, breath elimination model ([1]; Subject 209): 36.96 micrograms per liter
- Breath, 1st compartment half-life, elimination ([1]; Subject 209): 2.68 min
- Breath, 2nd compartment half-life, elimination ([1]; Subject 209): 21.44 min
- Breath, 3rd compartment half-life, elimination ([1]; Subject 209): 262.26 min
- Breath model value at t = 240 ([1]; Subject 209): 147.0 pg/I
- Breath, 1st compartment half-life, uptake ([1]; Subject 209): 21.42 min
- k1 time constant, breath uptake model ([1]; Subject 209, time in minutes): 0.03236
- Uptake curve model plateau coefficient, breath ([1]; Subject 210, Figure 1B): 113 micrograms per liter
- k3 time constant, breath elimination model ([1]; Subject 210, Figure 1D, time in minutes): .00061
- Breath model value at t = 0 ([1]; Subject 210): 194.7 pg/I
- A1 coefficient, breath elimination model ([1]; Subject 210): 156.8 micrograms per liter and 157 micrograms per liter
- A2 coefficient, breath elimination model ([1]; Subject 210): 31.47 micrograms per liter and 31.5 micrograms per liter
- Breath, 1st compartment half-life, elimination ([1]; Subject 210): 1.03 min
- Breath, 2nd compartment half-life, elimination ([1]; Subject 210): 40.30 min
- Breath, 3rd compartment half-life, elimination ([1]; Subject 210): 1,145.89 min
- Breath model value at t = 240 ([1]; Subject 210): 113.0 pg/I
- Breath, 1st compartment half-life, uptake ([1]; Subject 210): 18.94 min
- k1 time constant, breath uptake model ([1]; Subject 210, time in minutes): 0.0366
- Relevant data range for breath samples [1, 5]: <1-150 pg/I
- Blood model value at t = 0 (Blood, meas) ([2]; Subject 108): 1,170.1 pg/I and 1,170 pg/I
- A coefficient (first), blood elimination model ([2]; Subject 108): 820.7 micrograms per liter
- Blood, 1st compartment half-life, elimination ([2]; Subject 108): 23.54 min
- Blood model value at t = 240 ([2]; Subject 108): 1,317 pg/I
- Blood, 1st compartment half-life, uptake ([2]; Subject 108): 26.60 min
- k1 time constant, blood uptake model ([2]; Subject 108): 0.02606
- Blood model value at t = 0 (Blood, meas) ([2]; Subject 109): 2,161.0 pg/I and 2,161 pg/I
- A2 coefficient, blood elimination model ([2]; Subject 109): 287.0 micrograms per liter
- A coefficient (first), blood elimination model ([2]; Subject 109): 1874 micrograms per liter
- Blood, 1st compartment half-life, elimination ([2]; Subject 109): 17.93 min
- Blood model value at t = 240 ([2]; Subject 109): 1,839 pg/I
- Blood, 1st compartment half-life, uptake ([2]; Subject 109): 64.90 min
- k1 time constant, blood uptake model ([2]; Subject 109): 0.01068
- Blood model value at t = 0 (Blood, meas) ([2]; Subject 110): 1,481 pg/I and 1,480.9 pg/I
- A2 coefficient, blood elimination model ([2]; Subject 110): 979.1 micrograms per liter
- A coefficient (first), blood elimination model ([2]; Subject 110): 501.8 micrograms per liter
- Blood, 1st compartment half-life, elimination ([2]; Subject 110): 6.86 min
- Blood model value at t = 240 ([2]; Subject 110): 1,377 pg/I
- Blood, 1st compartment half-life, uptake ([2]; Subject 110): 45.66 min
- k1 time constant, blood uptake model ([2]; Subject 110): 0.01518
- Blood model value at t = 0 (Blood, meas) ([2]; Subject 208): 1,284.6 pg/I and 1,285 pg/I
- A2 coefficient, blood elimination model ([2]; Subject 208): 385.1 micrograms per liter
- A coefficient (first), blood elimination model ([2]; Subject 208): 899.5 micrograms per liter
- Blood, 1st compartment half-life, elimination ([2]; Subject 208): 12.49 min
- Blood model value at t = 240 ([2]; Subject 208): 1,181 pg/I
- Blood, 1st compartment half-life, uptake ([2]; Subject 208): 24.65 min
- k1 time constant, blood uptake model ([2]; Subject 208): 0.02812
- Blood model value at t = 0 (Blood, meas) ([2]; Subject 209): 1,641.0 pg/I and 1,641 pg/I
- A2 coefficient, blood elimination model ([2]; Subject 209): 238.0 micrograms per liter
- A coefficient (first), blood elimination model ([2]; Subject 209): 1403 micrograms per liter
- Blood, 1st compartment half-life, elimination ([2]; Subject 209): 21.74 min
- Blood model value at t = 240 ([2]; Subject 209): 1,608 pg/I
- Blood, 1st compartment half-life, uptake ([2]; Subject 209): 47.12 min
- k1 time constant, blood uptake model ([2]; Subject 209): 0.01471
- Uptake curve model plateau coefficient, blood ([2]; Subject 210, Figure 1A): 1132 micrograms per liter
- Blood model value at t = 0 (Blood, meas) ([2]; Subject 210): 1,183 pg/I and 1,182.9 pg/I
- A2 coefficient, blood elimination model ([2]; Subject 210): 264.4 micrograms per liter and 264 micrograms per liter
- A coefficient (first), blood elimination model ([2]; Subject 210): 918.5 micrograms per liter and 918 micrograms per liter
- Blood, 1st compartment half-life, elimination ([2]; Subject 210): 15.39 min
- Blood model value at t = 240 ([2]; Subject 210): 1,128 pg/I
- Blood, 1st compartment half-life, uptake ([2]; Subject 210): 28.85 min
- k1 time constant, blood uptake model ([2]; Subject 210): 0.02403
- Relevant data range for blood samples [2, 5]: 100-1,600 pg/I
- Blood/air partition coefficient [3, 6]: 8.1
- Partition coefficient for lung tissue [3, 6]: 14.0
- Blood/air partition coefficient ([3]; measured in vitro, ref Gargas et al. (22)): 8.11
- Blood/air partition coefficient ([3]; measured in vitro, ref Lindqvist (23)): 15.7
- Blood/breath partition coefficient, accepted literature value ([3]; used in human pharmacokinetic model, ref Allen and Fisher (26)): 9.2
- Pulmonary partition coefficient ([3]; value used, ref Fernandez et al. (25)): 9
- In vivo blood/breath partition coefficient, elimination-only data set ([4]; Mean ± SE of 6 subjects, end of 100 ppmv 4 hr inhalation): 9.69
- Calc:meas ratio of peak blood level ([4]; Subject 108): 0.76
- Blood:breath ratio at end of exposure, calculated from elimination models [4, 7]: 12.11
- Blood:breath ratio at end of exposure, calculated from uptake models [4, 7]: 12.45
- Calc:meas ratio of peak blood level ([4]; Subject 109): 0.75
- Blood:breath ratio at end of exposure, calculated from elimination models [4, 8]: 12.31
- Blood:breath ratio at end of exposure, calculated from uptake models [4, 8]: 14.12
- Calc:meas ratio of peak blood level ([4]; Subject 110): 1.01
- Blood:breath ratio at end of exposure, calculated from elimination models [4, 9]: 9.11
- Blood:breath ratio at end of exposure, calculated from uptake models [4, 9]: 11.96
- Calc:meas ratio of peak blood level ([4]; Subject 208): 0.93
- Blood:breath ratio at end of exposure, calculated from elimination models [4, 10]: 9.89
- Blood:breath ratio at end of exposure, calculated from uptake models [4, 10]: 11.97
- Calc:meas ratio of peak blood level ([4]; Subject 209): 0.90
- Blood:breath ratio at end of exposure, calculated from elimination models [4, 11]: 10.18
- Blood:breath ratio at end of exposure, calculated from uptake models [4, 11]: 10.94
- Calc:meas ratio of peak blood level ([4]; Subject 210): 1.51
- Blood:breath ratio at end of exposure, calculated from elimination models [4, 12]: 6.07
- Blood:breath ratio at end of exposure, calculated from uptake models [4, 12]: 9.99
- Blood/breath regression slope (mean blood/breath ratio), elimination phase [4, 13]: 29.00
- Blood/breath regression slope (mean blood/breath ratio), uptake phase [4, 13]: 10.93
- Inspired trichloroethene excreted through exhalation ([4]; at equilibrium): about 22%
- Share of the expired trichloroethene coming from the blood (first) compartment ([4]; elimination phase after 4-hr exposure): about 75%
- In vivo blood/breath partition coefficient, overall mean ([4]; experiment time = 0, all subjects, uptake and elimination experiments): 10.8
- Mean time constant for breath relative to its blood counterpart (times as large) ([4]; initial 10 min of elimination, first compartment dominant): 10
- Time constant for breath relative to that for blood (times as large) ([4]; uptake portion of the experiment): about 2.5
